Here are results for nine molecules from patent US9629786B2, “Monoterpene derivatives of chalcone or dihydrochalcone and their use as depigmenting agents” (PIERRE FABRE DERMO-COSMETIQUE, priority 2011, dated 2017).

Data set [1] concerns murine melanoma cell line B16-F10. The experiment in a line: Inhibition of melanin synthesis, colorimetric assay on B16-F10. The following applies: Mus musculus, B16-F10 cells. The class given is cell-based. The text has this: Pharmacological Testing: Inhibition of Melanin Synthesis:
We have developed a test for measuring melanin synthesis by using a colorimetric assay on the murine melanoma cell line B16-F10. This assay enables to test the depigmenting power of active ingredients.

The nature of data set [2]: Stability of chalcone (cyclization to flavanone). It is filed as physicochemical. The following applies: for stability (cyclization to flavanone): purified / pure form. The text has this:
More preferably, ? is a double bond, R1=H and R2=OH, that is to say the extract according to the invention is enriched with gymnochalcone. […] In fact, cyclization of chalcones to flavanone, upon addition of a hydroxyl group on 1,4-position in the carbonyl group by a Michael type reaction, which brings about instability of the chalcones, is not observed in this case.
Thus preferably gymnochalcone will be used in the form of an extract of Helichrysum gymnocephalum.

Data set [3] deals with fungal tyrosinase. The following applies: monophenoloxidase activity on fungal tyrosinase; cited from earlier work.
Data set [4] concerns plasmodial. As to conditions: cited from earlier work.
In data set [5] the test system is cancer cell line (lung). The following applies: cited from earlier work.

By IC50 is commonly meant the concentration needed to halve the response being measured.

`CC1=CC(c2c(O)cc(O)c(C(=O)CCc3ccccc3)c2O)C(C(C)C)CC1` (stereo not shown) [Linderatin, linderatin] came in with an IC50 in data set [1] of 5 µM. In addition, in data set [2], the “stability (cyclization to flavanone)” value is recorded as “stable in such form”.

Consider `O=c1cc(CO)occ1O` [Kojic acid, reference compound], for which, in data set [1], the IC50 worked out at 2400 µM.

In data set [1], `COc1ccc(O)cc1` [Hydroquinone monomethyl ether, reference compound] gave an IC50 of 31 µM.

As for `O=C(/C=C/c1ccccc1)c1c(O)cc(O)cc1O` [2′,4′,6′-Trihydroxychalcone (II), 2′,4′,6′-Trihydroxychalcone], in data set [3], the IC50 is 120 µM.

For the molecule `COc1cc(O)c(C(=O)CCc2ccccc2)c(O)c1[C@H]1C=C(C)CC[C@@H]1C(C)C` [(−)-Methyl-linderatin], the anti-plasmodial activity result in data set [4] is “anti-plasmodial activity”.

Molecule `COc1cc(O)c(C(=O)CCc2ccccc2)c(O)c1C1C=C(C)CCC1C(C)C` (stereo not shown) [Methyllinderatin, methyllinderatin] displayed an IC50 in data set [1] of 6 µM. Moreover, the “stability (cyclization to flavanone)” value in data set [2] was “stable in such form”.

Consider `CC1=CC(c2c(O)cc(O)c(C(=O)/C=C/c3ccccc3)c2O)C(C(C)(C)O)CC1` (stereo not shown) [Gymnochalcone, gymnochalcone], for which, in data set [1], the midpoint of inhibition, the IC50, lay at 17 µM. Also, the stability in time result in data set [2] (in the extract of Helichrysum gymnocephalum) is “stable in time”. Moreover, in data set [2], the “stability (cyclization to flavanone)” value is given as “cyclization is observed”.

Take `OC[C@H]1O[C@@H](Oc2ccc(O)cc2)[C@H](O)[C@@H](O)[C@@H]1O` [Arbutin, reference compound]: half-maximal inhibition in data set [1] (IC50) was put at 158 µM.

`CC1=C[C@H](c2c(O)cc(O)c(C(=O)CCc3ccccc3)c2O)[C@H](C(C)C)CC1` [(−)-linderatin]: in data set [5], the cytotoxicity result was “exhibited cytotoxicity”.
